Reference: ChEMBL document CHEMBL1153126, “Substituted tetrahydro-beta-carbolines as potential agents for the treatment of human papillomavirus infection” (Bioorg Med Chem Lett, 2010)

Assays:
[1] = system: Human papillomavirus type 16; test: Antiviral activity against Human papillomavirus - 16 infected in human W12-20850 cells by hybrid capture method; assay type: functional, organism-based; settings: Human papillomavirus 16, W12-20850
[2] = Cytotoxicity against HFF cells; assay type: cell-based; settings: human
[3] = Therapeutic index, CC50 for HFF cells to IC50 for Human papillomavirus - 16; assay type: cell-based; settings: read-out: TI
[4] = Oral bioavailability in mouse at 5 mg/kg; assay type: ADME, organism-based; settings: in vivo
[5] = Half life in rat at 1 mg/kg, iv; assay type: ADME, organism-based; design: dose 1 mg/kg, route intravenous; settings: in vivo
[6] = Clearance in rat at 1 mg/kg, iv; assay type: ADME, organism-based; design: dose 1 mg/kg, route intravenous; settings: in vivo

SMILES	IC50 [1] [µM]	CC50 [2] [µM]	selectivity ratio [3]	bioavailability [4] [%]	half-life [5] [h]	clearance [6] [mL/min/kg]
Cc1ccc(C2c3[nH]c4ccccc4c3CCN2C(=O)CCc2ccccc2)cc1 (stereo unspecified)	1.3	> 100	100	–	–	–
Cc1ccc(C2c3[nH]c4ccc(Cl)cc4c3CCN2C(=O)CCc2ccccc2)cc1 (stereo unspecified)	0.062	> 100	> 100	–	–	–
Cc1ccc([C@@H]2c3[nH]c4ccc(Cl)cc4c3CCN2C(=O)CCc2ccccc2)cc1	7.7	> 100	–	–	–	–
COc1ccc(S(=O)(=O)N2CCc3c([nH]c4ccccc34)C2c2ccc(C)cc2)cc1 (stereo unspecified)	66	> 100	–	–	–	–
O=C(CCc1ccccc1)N1CCc2c([nH]c3ccccc23)C1CN1CCCC1 (stereo unspecified)	–	16	–	–	–	–
COc1ccc2c3c([nH]c2c1)C(c1ccc(C)cc1)N(C(=O)CCc1ccccc1)CC3 (stereo unspecified)	5.8	> 100	> 100	–	–	–
CC(C)CC1c2[nH]c3ccccc3c2CCN1C(=O)CCc1ccccc1 (stereo unspecified)	0.33	22	–	–	–	–
O=C(C1c2[nH]c3ccccc3c2CCN1C(=O)CCc1ccccc1)N1CCCC1 (stereo unspecified)	> 100	> 100	–	–	–	–
Cc1ccc([C@H]2c3[nH]c4ccc(Cl)cc4c3CCN2C(=O)CCc2ccccc2)cc1	0.023	> 100	–	73	6.2	3.6
O=C(CCc1ccccc1)N1CCc2c([nH]c3ccccc23)C1c1cccnc1 (stereo unspecified)	> 100	> 100	–	–	–	–
COc1ccc2[nH]c3c(c2c1)CCN(C(=O)CCc1ccccc1)C3c1ccc(C)cc1 (stereo unspecified)	0.57	> 100	> 100	–	–	–
COC(=O)C1c2[nH]c3ccccc3c2CCN1C(=O)CCc1ccccc1 (stereo unspecified)	20	> 100	–	–	–	–
O=C(OCC1c2[nH]c3ccccc3c2CCN1C(=O)CCc1ccccc1)N1CCCC1 (stereo unspecified)	> 100	> 100	–	–	–	–
Cc1ccc(C2c3[nH]c4ccccc4c3CCN2C(=O)Oc2cccc3ccccc23)cc1 (stereo unspecified)	23	> 100	–	–	–	–
Cc1ccc(C2c3[nH]c4ccc(C)cc4c3CCN2C(=O)CCc2ccccc2)cc1 (stereo unspecified)	0.35	> 100	> 100	–	–	–
Cc1ccc(C2c3[nH]c4ccccc4c3CCN2CC(C)C)cc1 (stereo unspecified)	25	50	–	–	–	–
Cc1ccc(C2c3[nH]c4ccccc4c3CCN2C(=O)OCc2ccccc2)cc1 (stereo unspecified)	0.9	> 100	–	–	–	–

SMILES	IC50 [1] [µM]	CC50 [2] [µM]	selectivity ratio [3]	bioavailability [4] [%]	half-life [5] [h]	clearance [6] [mL/min/kg]
COC(=O)N1CCc2c([nH]c3ccccc23)C1c1ccc(C)cc1 (stereo unspecified)	1.7	31	–	–	–	–
Cc1ccc(C2c3[nH]c4ccc(F)cc4c3CCN2C(=O)CCc2ccccc2)cc1 (stereo unspecified)	0.44	> 100	> 100	–	–	–
Cc1ccc(C2c3[nH]c4ccccc4c3CCN2C(=O)CCc2cccnc2)cc1 (stereo unspecified)	18	94	–	–	–	–
CC(C)C[C@@H]1c2[nH]c3ccc(Cl)cc3c2CCN1C(=O)CCc1ccccc1	0.88	> 100	–	–	–	–
Cc1ccc(C2c3[nH]c4c(C)cccc4c3CCN2C(=O)CCc2ccccc2)cc1 (stereo unspecified)	2.2	> 100	> 100	–	–	–
Cc1ccc(C2c3[nH]c4ccccc4c3CCN2C(=O)/C=C/c2ccccc2)cc1 (stereo unspecified)	2.3	> 100	–	–	–	–
Cc1ccc(C2c3[nH]c4ccccc4c3CCN2S(C)(=O)=O)cc1 (stereo unspecified)	23	> 100	–	–	–	–
O=C(CCc1ccccc1)N1CCc2c([nH]c3ccccc23)C1COc1ccccc1 (stereo unspecified)	72	> 100	–	–	–	–
O=C(CCc1ccccc1)N1CCc2c([nH]c3ccccc23)C1c1ccccc1 (stereo unspecified)	1.2	> 100	–	–	–	–
Cc1ccc(C2c3[nH]c4ccccc4c3CCN2C(=O)CCN(C)C)cc1 (stereo unspecified)	15	40	–	–	–	–
O=C(CCc1ccccc1)N1CCc2c([nH]c3ccccc23)C1COCc1ccccc1 (stereo unspecified)	7.3	> 100	–	–	–	–
Cc1ccc(C2c3[nH]c4ccccc4c3CCN2C(=O)C#Cc2ccccc2)cc1 (stereo unspecified)	20	> 100	–	–	–	–
Cc1ccc(C2c3[nH]c4cc(F)ccc4c3CCN2C(=O)CCc2ccccc2)cc1 (stereo unspecified)	1.7	> 100	> 100	–	–	–
O=C(CCc1ccccc1)N1CCc2c([nH]c3ccccc23)C1CCc1ccccc1 (stereo unspecified)	2.7	> 100	–	–	–	–
CC(C)C[C@H]1c2[nH]c3ccc(Cl)cc3c2CCN1C(=O)CCc1ccccc1	0.018	> 100	–	–	–	–
Cc1ccc(C2c3[nH]c4ccccc4c3CCN2Cc2ccccc2)cc1 (stereo unspecified)	5.8	94	–	–	–	–
